Legend:
[1] = system: cerebellar neurons on 3T3 fibroblasts that express N-cadherin; assay: neurite outgrowth assay; assay type: cell-based, mouse; details: 10 micromolar; 18 hours culture
Procedure: Within a representative neurite outgrowth assay, neurons are cultured on a monolayer of cells (e.g., 3T3 fibroblasts) that express N-cadherin. […] For example, neurons can be cultured on monolayers of 3T3 cells transfected with cDNA encoding N-cadherin essentially as described by Doherty, P. and Walsh, F. S., Curr. Op. Neurobiol. 4:49-55, 1994; Williams, E. J., et al., Neuron 13:583-594, 1994; Hall, H., et al., Cell Adhesion and Commun. 3:441-450, 1996; Doherty, P. and Walsh, F. S., Mol. Cell. Neurosci. 8:99-111, 1994; and Safell, J. L., et al., Neuron 18:231-242, 1997. Briefly, monolayers of control 3T3 fibroblasts and 3T3 fibroblasts that express N-cadherin are established by overnight culture of 80,000 cells in individual wells of an 8-chamber well tissue culture slide. 3000 cerebellar neurons isolated from post-natal day 3 mouse brains are cultured for 18 hours on the various monolayers in control media (SATO/2% FCS), or media supplemented with various concentrations of the modulating agent. The cultures are then fixed and stained for GAP43 which specifically binds to the neurons and their neurites. The length of the longest neurite on each GAP43 positive neuron is measured by computer assisted morphometry.

[2] = system: classical cadherin-expressing cells; assay: cell adhesion assay, classical cadherin mediated cell adhesion; assay type: cell-based; details: 1 micromolar; determined visually within 24 hours
Procedure: In these experiments, classical cadherin-expressing cells are plated under standard conditions that, in the absence of cell adhesion antagonist, permit cell adhesion. Disruption of cell adhesion is determined visually within 24 hours, by observing retraction of the cells from one another.

[3] = system: Panc-1 human pancreatic cancer cells; assay: cancer cell adhesion, visual retraction of cells; assay type: cell-based; details: 24 hours, light microscopy
Procedure: (§1) In these experiments, Panc-1 human pancreatic cancer cells were maintained in Dulbecco's minimum essential medium supplemented with 10% fetal calf serum at 37° C. in 5% CO2 in air. All culture reagents were purchased from Invitrogen (Burlington, ON). Panc-1 cells (ATCC CRL-1469) were plated at 20,000 cells per well of a 4-well tissue culture slide (NalgeNunc, Naperville, Ill.). After 24 hours of culture, cells were treated for 24 hours with medium containing varying concentrations of compounds 15 and 16 dissolved in dimethylsulfoxide (DMSO; final concentration of 1% DMSO in the medium), or 1% DMSO alone in the medium and then fixed with 4% paraformaldehyde dissolved in phosphate buffered saline and stained with hematoxylin. Disruption of cell adhesion was determined visually within 24 hours, by observing retraction of the cells from one another.

[4] = system: Panc-1 human pancreatic cancer cells; assay: cell death, trypan blue exclusion count; assay type: cell-based; details: 24 hours
Procedure: as §1
In order to determine the effect of the compounds on cell death, the medium was aspirated from the treated and untreated cultures and the non-adherent cells collected by centrifugation (1000 rpm for 5 min). The cells were resuspended in phosphate buffered saline and combined with trypan blue (Sigma). Cells were then put in a hemocytometer and the number of cells that excluded the trypan blue counted using a microscope to determine the number of live cells.

[5] = system: 3D spheroid N-cadherin mouse fibroblast (LN5) cells; assay: hanging drop 3D spheroid cell culture assay; assay type: cell-based; details: hanging drops incubated 48 h
Procedure: In these experiments, a total of 2×10^6 originally noncohesive embryonic mouse L929 fibroblasts (L cells) were transfected by electroporation in 400 μl transfection medium (RPMI 1640, 1% dextrose, 1 mM β-mercaptoethanol) with 40 μg pMiwcN chicken N-cadherin expression vector (Miyatani, S., et al., Science, 1989, 245, 631-635; Fujimori T., et al., Development, 1990, 110. 97-104). Neomycin resistance (pwlneo, GIBCO) was included for G418 selection. Transfected cells were diluted 1/100 and placed in medium containing 800 μg/ml G418 (GIBCO). Resistant cells were grown to confluence, detached by trypsin/Ca^2+ treatment, and stained with an anti-chicken N-cadherin antibody (NCD2, Zymed) on ice for 45 min. After several washes in Hanks' balanced salt solution, cells were mixed with a fluorescein isothiocyanate-conjugated secondary antibody and placed on ice for 30 min. N-cadherin-expressing cells were then autocloned into 96-well plates by using the CloneCyt Integrated Deposition System (Becton-Dickinson Immunocytometry Systems). Positive clones were reanalyzed by FACS and the L cell line LN5 was propagated for these studies.
The 3D spheroids were generated as follows. Cells were removed from near-confluent plates with TC (0.05% trypsin and 2 mM Ca^2+ in Hank's solution for 5-10 minutes), washed once with 1 mL 4° C. Hank's solution, and suspended at a concentration of 2.5×10^6 cells/ml in complete MEM supplemented with 2 mM CaCl2 and varying concentrations of N-cadherin antagonists (Crocus Laboratories, Montreal, Quebec, Canada). The antagonists were compound 15 (MW=499.43) and compound 16 (MW=499.43). Stock solutions of the antagonists were prepared by dissolving the antagonists in DMSO at concentrations of 30 mM. Controls were made by suspending the cells as described above in the absence of antagonists with only the respective amount of DMSO added. Drops of the cell suspensions (10 microliters each) were deposited on the underside of a 10 cm tissue culture dish lid. The lid was then inverted and placed on dish containing 5 ml of PBS for hydration. Hanging drops were incubated under tissue culture conditions for 48 h, allowing the cells to coalesce at the base of the droplets and to form multi-layer aggregates. The tissue culture dish lid was then removed and the medium was gently aspirated. Aggregates (N=10-20) where then photographed under 4× lens and cell area was analyzed using ImageJ. Statistical differences were determined using ANOVA and Tukey's multiple comparison test.
Each of the antagonists tested from Crocus Laboratories contained cadherin antagonist properties at different potency levels. We determined the approximate minimum concentration needed for an anti-adhesion dose response on 3D spheroid N-cadherin mouse fibroblast (LN5) cells. […]

[6] = system: human cancer-associated fibroblast (CAF010415); assay: cancer-associated fibroblast viability, CELLTITER GLO; assay type: cell-based; details: in vitro; measured after 24 h and 48 h
Procedure: In this study, CAFs were isolated as described by Orr et al, (On, B., et al., Oncogene, 31, 1130-1142, 2012). The cells were grown in Dulbecco's modified Eagle medium (Multicell) with 10% fetal bovine serum. CAFs are human primary fibroblasts, grown from patient prostate tumor samples. These cells are not an established cell line, nor are they immortalized, and at some point they will senesce.
In these experiments, cells were seeded in a 96-well plate (Corning) (3,000 cells/well). The next day, the drug was added at the indicated concentration (FIG. 8). After 24 h and 48 h cell viability was measured using CELLTITER GLO® (Promega, Madison, Wis.) according to the manufacturer's protocol. All assays were repeated at least 3 times in triplicate each time. The results are depicted in FIG. 8 as SEM. […] The N-cadherin antagonist compound 15 thus decreases the viability of human pancreatic cancer (PC) cells and CAFs. These observations indicate that N-cadherin antagonists can be used to treat PC.

[7] = system: human fibroblast-like synoviocytes (FLS); assay: fibroblast-like synoviocyte cell adhesion; assay type: cell-based; details: 24 hours treatment
Procedure: In these experiments, human fibroblast-like synoviocytes (FLS) (ScienCell Research Laboratories (Carlsbad, Calif.; Cat #4700) were maintained in complete Synoviocyte media (ScienCell Research Laboratories Carlsbad, Calif. Cat #4701) at 37° C. in 5% CO2 in air. FLS cells were plated at 1.5×10^4 cells per well of a 4-well tissue culture slide (NalgeNunc, Naperville, Ill.). After 24 hours of culture, cells were treated for 24 hours with medium containing varying concentrations of compounds 15 dissolved in dimethylsulfoxide (DMSO; final concentration of 1% DMSO in the medium), or 1% DMSO alone in the medium. The cells were then fixed with 4% paraformaldehyde dissolved in phosphate buffered saline and stained with hematoxylin. Disruption of cell adhesion was determined visually within 24 hours, by observing retraction of the cells from one another.

female mice = assay: ovulation / corpus luteum formation in hormone-stimulated mice; assay type: in vivo, mouse; details: 50 mg/kg i.p. twice per day
Procedure: In these experiments, two groups of female mice (n=6 per group) were injected i.p. (50 μL per injection) twice per day with either vehicle control (saline containing 7.5% DMSO) or vehicle containing compound 15 (50 mg/kg) at the days indicated in FIG. 10. The mice were injected with hormones to stimulate ovulation. FIG. 10 is a schematic showing the injection of hormones into mice to cause follicle maturation and injection of compound 15.

[8] = system: 5TGM1 mouse MM plasma cells; assay: C57BL/KaLwRij murine model of Multiple Myeloma, tumor burden; assay type: in vivo; details: 50 mg/kg/day i.p. for 5 days; assessed at days 14, 21 and 28
Procedure: In these experiments, 5TGM1 mouse MM plasma cells (expressing a dual GFP and luciferase reporter construct (Noll Neoplasia 2014; Cheong 2015)) were maintained in Iscove's modified Dulbecco's medium (IMDM) with 20% fetal calf serum (FCS; Thermo Fisher Scientific, Waltham, Mass., USA) and supplements.
C57Bl/KaLwRij mice (aged 6-8 weeks) were used for all in vivo studies. For MM tumor studies, mice were inoculated with 5×10^5 5 TGM1 cells in 100 μl phosphate buffered saline by intravenous injection (i.v.) via the tail vein. Total body tumor burden was assessed at days 14, 21 and 28 using the Xenogen IVIS, as previously described (Mrozik, K. M., et al., 2015, Br. J. Haematol. 171, 387-399.). All animals used for therapy studies were randomized by age, sex and, where appropriate, tumor burden. Compound 15 was dissolved at a concentration of 10 mg/ml in saline containing 40% 2-hydroxyproprol-β-cyclodextrin. Either compound 15 (50 mg/kg/day) (N=8) or vehicle (40% 2-hydroxyproprol-β-cyclodextrin in saline) (N=7) alone was administered to mice i.p. commencing 15 minutes prior to 5TGM1 cell injection for 5 days. […] Compound 15 is therefore effective for treatment of MM.

Myeloma cells MM.1S = assay: multiple myeloma cell viability, high content screening of live cells; assay type: cell-based; details: 24 h post-treatment
Procedure: Myeloma cells MM.1S (American Type Culture Collection, Manassas, Va., USA) were cultured in RPMI-1640 medium supplemented with 10% fetal bovine serum (Thermo Fisher Scientific, Waltham, Mass., USA), 100 U/mL of penicillin, and […] of streptomycin. The cells were grown at 37° C. in a humidified incubator with 5% CO2.
In these experiments, MM.1S cells were pre-labeled with CellTrace Violate (Thermo Fisher Scientific), plated on 96-well plates (1.5×10^5 cells/well) and treated with varying concentrations of compound 15 (1-100 μM) or DMSO (vehicle control). High content screening (CellInsight CX5, Thermo Fisher Scientific) was utilized to quantify the number of live cells (i.e. calcein AM+ cells) 24 h post-treatment. FIG. 13 presents photomicrographs (upper panel) and quantitative data (lower panel) of cells treated with compound 15.

SMILES | decrease in the mean neurite length relative to the length in the absence of modulating agent [1] | disruption of cell adhesion (retraction of the cells from one another) [2] | disruption of cell adhesion ([3]; 0.1 μM) | disruption of cell adhesion ([3]; 1 μM) | disruption of cell adhesion ([3]; 10 μM) | disruption of cell adhesion ([3]; 100 μM) | cell death in comparison to the control ([4]; 10 μM) | cell death in comparison to the control ([4]; 100 μM) | concentration at which complete disruption occurred [5] [µM] | minimum concentration required to observe cohesion disruption [5] [µM] | cell viability [6] | concentration range in which effects on FLS cells (disruption of cell adhesion) can be seen [7] [µM] | corpus luteum formation (luteinized CL-like structures in ovaries) (female mice) | ovulation (female mice) | total body tumour burden [8] | number of live cells (calcein AM+) on the substratum (Myeloma cells MM.1S; 10 μM) | number of live cells (calcein AM+) on the substratum (Myeloma cells MM.1S; 100 μM) | cell death in comparison to the control ([4]; 1 μM)
COc1ccc(OC[C@@H](O)CNC2CCN(C[C@H](O)COc3ccc(Cl)c(Cl)c3)CC2)cc1 [Compound 15, (S)-1-(3,4-Dichlorophenoxy)-3-(4-((S)-2-hydroxy-3-(4-methoxyphenoxy)propylamino)piperidin-1-yl)propan-2-ol] | at least 50% | disruption of cell adhesion is observed | not disrupted | disrupted cell adhesion | disrupted cell adhesion | disrupted cell adhesion | caused cell death | caused cell death | 75 | 40 | decreases human cancer-associated fibroblast (CAF010415) viability | 5 to 50 | fewer clearly luteinized CL-like structures | inhibits ovulation | caused a decrease in tumour burden | caused a decrease in the number of live cells | caused a decrease in the number of live cells | 
COc1ccc(OC[C@@H](O)CNC2CCN(C[C@@H](O)COc3ccc(Cl)c(Cl)c3)CC2)cc1 [Compound 16, (R)-1-(3,4-Dichlorophenoxy)-3-(4-((S)-2-hydroxy-3-(4-methoxyphenoxy)propylamino)piperidin-1-yl)propan-2-ol] |  |  | disrupted cell adhesion | disrupted cell adhesion | disrupted cell adhesion | disrupted cell adhesion | caused cell death | caused cell death | 75 | 50 |  |  |  |  |  |  |  | caused cell death

From patent US10647672B2, “Modulators of cell adhesion, methods and compositions therefor” (Zonula Incorporated, priority 2017, dated 2020)
